Assay results published in patent US8541447B2 (priority 2003, dated 2013).
Where two headings read alike, the source gives them in different places.

Target: muscarinic M3 receptor (Homo sapiens (Human), UniProt P20309)
Format: binding

Row | SMILES | ability to inhibit [3H]QNB binding at muscarinic sites | ability to inhibit [3H]QNB binding at muscarinic sites (human clonal line TE671/RD)
1 | COc1ccc(NC(=O)OC2C3CCN(CC3)C2Cc2cccnc2)cc1 (centres unmarked) [Compound 4, 2-((3-pyridinyl)methyl)-1-azabicyclo[2.2.2]oct-3-yl N-(4-methoxyphenyl)carbamate] | None of the compounds was able to inhibit [^3H]QNB binding | –
2 | O=C(Nc1ccccc1)OC1C2CCN(CC2)C1Cc1cccnc1 (centres unmarked) [Compound 2, 2-((3-pyridinyl)methyl)-1-azabicyclo[2.2.2]oct-3-yl N-phenylcarbamate] | None of the compounds was able to inhibit [^3H]QNB binding | –
3 | O=C(NC1C2CCN(CC2)C1Cc1cccnc1)c1cc2ccccc2o1 (centres unmarked) [Compound 9, N-(2-((3-pyridinyl)methyl)-1-azabicyclo[2.2.2]oct-3-yl)benzofuran-2-carboxamide] | – | None of the compounds was able to inhibit [^3H]QNB binding
4 | O=C(Nc1ccc(Br)cc1)OC1C2CCN(CC2)C1Cc1cccnc1 (centres unmarked) [Compound 1, 2-((3-pyridinyl)methyl)-1-azabicyclo[2.2.2]oct-3-yl N-(4-bromophenyl)carbamate] | None of the compounds was able to inhibit [^3H]QNB binding | –
5 | O=C(NC1C2CCN(CC2)C1Cc1cccnc1)c1ccc(Sc2ccccc2)cc1 (centres unmarked) [Compound 11] | – | None of the compounds was able to inhibit [^3H]QNB binding
